Experimental data published in paper PMC12552119, “Tailored structured peptide design with a key-cutting machine approach” (Nature Machine Intelligence, 2025).
Entries after “also recorded” stand apart in the source; their conditions may differ. Like-named read-outs stand apart in the source and are kept apart here. Where no end group is shown, it is not given here.

How the values were obtained:
A. baumannii ATCC 19606 [1] = type: cell-based, Acinetobacter baumannii
Method: (§1) Fig. 2 Antimicrobial activity and secondary structure of computationally designed peptides. a, Structure prediction of the synthesized peptides. b, Heatmap of the antimicrobial activities of the peptides against 11 clinically relevant pathogens, including four strains resistant to conventional antibiotics. Briefly, 10^6 bacterial cells and serially diluted peptides (1-64 μmol l^−1) were incubated at 37 °C. One day after treatment, the optical density at 600 nm was measured in a microplate reader to evaluate bacterial growth in the presence of the peptides. MIC values in the heatmap are the mode of the replicates in each condition. c–f, Ternary plots showing the percentage of secondary structure for each peptide (at 50 μmol l^−1) in four different solvents: water (c), 60% TFE in water (d), 10 mmol l^−1 SDS in water (e) and 50% methanol (MeOH) in water (f). Secondary structure fractions were calculated using the BeStSel server. […] An error of one column cannot be fully excluded. / Panel b: AT1, AT2, AT3 and all blank cells print no number and are left out.
(§2) In this study, we used the following pathogenic bacterial strains: A. baumannii ATCC 19606, E. coli AIC221 (E. coli MG1655 phnE_2::FRT (control strain for AIC222)) and E. coli AIC222 (E. coli MG1655 pmrA53 phnE_2::FRT (polymyxin resistant; colistin-resistant strain)), Klebsiella pneumoniae ATCC 13883, Pseudomonas aeruginosa PAO1, P. aeruginosa PA14 and Staphylococcus aureus ATCC 12600. All pathogens were grown in Luria–Bertani (LB) broth and on LB agar. Pseudomonas isolation (P. aeruginosa strains) agar plates were exclusively used in the case of Pseudomonas species. In all the experiments, bacteria were inoculated from one isolated colony and grown overnight (16 h) in liquid medium at 37 °C. On the following day, inocula were diluted 1:100 in fresh media and incubated at 37 °C to mid-logarithmic phase.
(§3) Broth microdilution assays[64] were conducted to establish the MIC for each peptide. Peptides were added to untreated polystyrene 96-well microtiter plates and serially diluted twofold in sterile water, ranging from 1 to 64 μmol l^−1. A bacterial inoculum at a concentration of 10^6 CFU ml^−1 in LB medium was then mixed in a 1:1 ratio with the peptide solution. […] Each assay was performed in three independent replicates.

E. coli ATCC 11775 = type: cell-based, Escherichia coli; conditions: ATCC 11775, 24 h
Method: as §1
Broth microdilution assays[64] were conducted to establish the MIC for each peptide. Peptides were added to untreated polystyrene 96-well microtiter plates and serially diluted twofold in sterile water, ranging from 1 to 64 μmol l^−1. […]

K. pneumoniae ATCC 13883 = type: cell-based, Klebsiella pneumoniae; conditions: ATCC 13883, 24 h
Method: as §1, §2, §3

P. aeruginosa PA14 = type: cell-based, Pseudomonas aeruginosa; conditions: PA14, 24 h
Method: as §1, §2
(§4) Broth microdilution assays[64] were conducted to establish the MIC for each peptide. […]

P. aeruginosa PAO1 = type: cell-based, Pseudomonas aeruginosa; conditions: PAO1, 24 h
Method: as §1, §2, §4

[2] = system: E. faecium ATCC 700221 - VRE; type: cell-based; conditions: ATCC 700221, 24 h
Method: as §1, §3

A. baumannii ATCC 19606 [3] = test: Skin abscess infection mouse model, bacterial load; type: in vivo, CD-1 mice; conditions: single dose at MIC on the wound 1 h after infection, n = 6
Method: Fig. 4 Anti-infective activity of designed peptides in a skin scarification animal model. a, Schematic representation of the skin abscess mouse model used to assess the anti-infective activity of the designed peptides (n = 6) against A. baumannii ATCC 19606. […] Statistical significance in panel b was determined using one-way ANOVA followed by Dunnett’s test; P values are shown in the graphs. In the violin, the centre line represents the […], the box limits the first and third quartiles and the whiskers (minima and maxima) represent 1.5 × the interquartile range. Panel a created with BioRender.com. Source data
The backs of six-week-old female CD-1 mice under anaesthesia were shaved and injured with a superficial linear skin abrasion made with a needle. An aliquot of A. baumannii ATCC 19606 (2 × 10^6 CFU ml^−1; 20 μl) previously grown in LB medium until 0.5 optical density ml^−1 (optical value at 600 nm) and then washed twice with sterile PBS (pH 7.4, 9,391 g for 3 min) was added to the scratched area. Peptides diluted in sterile water at MIC value were administered to the wound area 1 h after the infection. Two and four days after infection animals were euthanized, and the scarified skin was excised, homogenized using a bead beater (25 Hz for 20 min), tenfold serially diluted, and plated on McConkey agar plates for CFU quantification. […]

[4] = Mouse weight in the skin abscess model; parameters: species or system CD-1 mice; conditions: in vivo
Method: The backs of six-week-old female CD-1 mice under anaesthesia were shaved and injured with a superficial linear skin abrasion made with a needle. An aliquot of A. baumannii ATCC 19606 (2 × 10^6 CFU ml^−1; 20 μl) previously grown in LB medium until 0.5 optical density ml^−1 (optical value at 600 nm) and then washed twice with sterile PBS (pH 7.4, 9,391 g for 3 min) was added to the scratched area. Peptides diluted in sterile water at MIC value were administered to the wound area 1 h after the infection. Two and four days after infection animals were euthanized, and the scarified skin was excised, homogenized using a bead beater (25 Hz for 20 min), tenfold serially diluted, and plated on McConkey agar plates for CFU quantification. The experiments were performed using six mice per group. Mice were housed in groups of three and maintained under a 12-h light/dark cycle at 22 °C with humidity controlled at 50%. The skin abscess infection mouse model was revised and approved by University Laboratory Animal Resources from the University of Pennsylvania (protocol 806763).
(§5) Figure S6. Cytotoxicity and anti-infective activity of designed peptides. (a) Cytotoxic effects of increasing concentrations ([…]) of each peptide on human embryonic kidney (HEK293T) cells after 24 h of treatment. Mouse weight was monitored throughout the duration of the (b) skin abscess model (4 days total) and the (e) deep thigh infection model (8 days total) to assess potential toxic effects of both the bacterial load and the designed peptides. (c) Schematic of the neutropenic thigh infection mouse model, where the designed peptides were administered intraperitoneally. Anti-infective activity against A. baumannii ATCC 19606 was evaluated 4 days after intraperitoneal peptide administration (n = 6). (d) Four days after intraperitoneal injection, NE2 at its MIC (32 µmol L-1) inhibited by […]
(§6) Statistical significance in panel d was determined using one-way ANOVA followed by Dunnett’s test; P values are shown in the graphs. […]

A. baumannii ATCC 19606 [5] = test: Deep thigh infection mouse model, bacterial load; type: in vivo, CD-1 mice; conditions: n = 6; for reduction of A. baumannii bacterial load, deep thigh infection model: neutropenic mice, peptides intraperitoneally
Method: (§7) Six-week-old female CD-1 mice were rendered neutropenic by two doses of cyclophosphamide (150 mg kg^−1 and 100 mg kg^−1) applied intraperitoneally 3 and 1 d before the infection. On day 4 of the experiment, the mice were infected in their right thighs with a 100-μl intramuscular injection of the A. baumannii ATCC 19606 in PBS at concentration of 5 × 10^6 CFU ml^−1. The bacterial cells were grown in LB broth, washed twice with PBS solution and diluted at the desired concentration. The peptides were administrated intraperitoneally 2 h after the infection. Two days after infection mice were euthanized, and the tissue from the right thigh was excised, homogenized using a bead beater (25 Hz for 20 min), tenfold serially diluted, and plated on McConkey agar plates for bacterial colony counting. The experiments were performed using six mice per group. Mice were housed in groups of three and maintained under a 12-h light/dark cycle at 22 °C with humidity controlled at 50%. The deep thigh infection mouse model was revised and approved by University Laboratory Animal Resources from the University of Pennsylvania (protocol 807055).
as §5, §6

[6] = type: in vivo, CD-1 mice; conditions: deep thigh infection model
Method: as §7, with “Mice were housed in groups of three and maintained under a 12-h light/dark cycle at 22 °C with humidity controlled at 50%. The deep thigh infection mouse model was revised and approved by University Laboratory Animal Resources from the University of Pennsylvania (protocol 807055).” left out
Figure S6. […] Mouse weight was monitored throughout the duration of the (b) skin abscess model (4 days total) and the (e) deep thigh infection model (8 days total) to assess potential toxic effects of both the bacterial load and the designed peptides. […] Anti-infective activity against A. baumannii ATCC 19606 was evaluated 4 days after intraperitoneal peptide administration (n = 6). […]
as §6

E. coli AIC221 = type: cell-based, Escherichia coli; conditions: AIC221, 24 h
Method: as §1, with “out. […]” for “out.”

A. baumannii ATCC 19606 [7] = test: Cytoplasmic-membrane depolarization, DiSC3-5; type: cell-based, Acinetobacter baumannii; conditions: DiSC3-5 fluorescence, peptides at their MIC, 60 min
Method: Fig. 3 Mechanism of action and cytotoxic activity of designed peptides. a, To assess whether the peptides act on bacterial membranes, all active peptides against A. baumannii American Type Culture Collection (ATCC) 19606 were subjected to outer-membrane permeabilization, and peptides active against A. baumannii ATCC 19606 and vancomycin-resistant E. faecalis ATCC 700802 were tested in cytoplasmic-membrane depolarization assays. b, The fluorescent probe NPN was used to assess membrane permeabilization induced by the tested peptides. c,d, The fluorescent probe DiSC3-5 was used to evaluate membrane depolarization caused by the designed peptides in A. baumannii ATCC 19606 (c) and vancomycin-resistant E. faecalis ATCC 700802 (d). […] All experiments were performed in three independent replicates. […]
The cytoplasmic-membrane depolarization assay was performed using the membrane-potential-sensitive dye DiSC3-5. […] Membrane depolarization was then followed by reading changes in the fluorescence (λex = 622 nm, λem = 670 nm) over time for 60 min. The relative fluorescence was calculated using the untreated control (buffer + bacteria + fluorescent dye) as baseline and the following equation was applied to reflect the percentage difference between the baselines and the sample: percentagedifference=100×(fluorescencesample−fluorescenceuntreatedcontrol)/fluorescenceuntreatedcontrol. […]

HEK293T cells = conditions: cited from earlier work
Method: Cytotoxicity was evaluated using human embryonic kidney (HEK293T) cells (Fig. 3e)[45].

[8] = broth microdilution, LB, 10^6 CFU ml^-1, peptides 1-64 μmol l^-1, 24 h, 37 °C, OD600, mode of three replicates

Row | Sequence | MIC (A. baumannii ATCC 19606 [1]; ATCC 19606, 24 h) [µM] | MIC (A. baumannii ATCC 19606 [1]; [8]) [µM] | MIC (E. coli ATCC 11775) [µM] | MIC (K. pneumoniae ATCC 13883) [µM] | MIC (P. aeruginosa PA14) [µM] | MIC (P. aeruginosa PAO1) [µM] | MIC [2] [µM] | reduction of A. baumannii bacterial load, skin abscess model (A. baumannii ATCC 19606 [3]) | weight loss or skin damage [4] | reduction of A. baumannii bacterial load, deep thigh infection model (A. baumannii ATCC 19606 [5]) | weight loss or skin damage [6] | MIC (E. coli AIC221) [µM] | cytoplasmic-membrane depolarization (A. baumannii ATCC 19606 [7]) | inhibition of the A. baumannii ATCC19606 infection against the untreated control (A. baumannii ATCC 19606 [5]; four days after intraperitoneal injection, at its MIC) | cytotoxicity of the parental peptide (HEK293T cells)
1 | HWKLIVRWKVQH [NG1] | 4 | 4 | 16 | 4 | 16 | 32 | 4 | up to two orders of magnitude; also recorded: inhibited the proliferation of the infection for up to 4 d after treatment | No weight loss or skin damage | up to two orders of magnitude | No weight loss or skin damage |  |  |  | 
2 | KFKLIVHYRICK [NG3] | 32 |  |  | 16 |  |  |  |  |  |  |  | 8 | particularly effective |  | 
3 | KWKARIQFKAAH [NE2] | 32 | 32 | 16 | 16 |  | 64 | 32 | up to two orders of magnitude; also recorded: inhibited the proliferation of the infection for up to 4 d after treatment | No weight loss or skin damage | up to two orders of magnitude | No weight loss or skin damage |  |  | one order of magnitude | 
4 | KWRLLIRWRIQK [IDR-2009] |  |  |  |  |  |  |  |  |  |  |  |  |  |  | did show cytotoxicity
